What was measured:
Assay type in all cases: in vivo
[1] = tested on: Zymoseptoria tritici; experiment: Leaf blotch of wheat (SEPTTR) disease control on wheat seedlings; conditions: for SEPTTR 1DP disease control rating, LV activity at 125.1 g/H / SEPTTR 3DC disease control rating, LV activity at 125.1 g/H / SEPTTR 1DP, LV activity at 125.1 g/H (% Control rating) / SEPTTR 3DC, LV activity at 125.1 g/H (% Control rating): low volume application; for SEPTTR 1DP disease control rating, LV activity at 125.1 g/H: 1 day protectant; for SEPTTR 3DC disease control rating, LV activity at 125.1 g/H: 3 day curative
[2] = tested on: Puccinia triticina; experiment: Wheat brown rust (PUCCRT) disease control on wheat seedlings; conditions: for PUCCRT 1DP disease control rating, LV activity at 125.1 g/H / PUCCRT 3DC disease control rating, LV activity at 125.1 g/H / PUCCRT 1DP, LV activity at 125.1 g/H (% Control rating) / PUCCRT 3DC, LV activity at 125.1 g/H (% Control rating): low volume application; for PUCCRT 1DP disease control rating, LV activity at 125.1 g/H: 1 day protectant; for PUCCRT 3DC disease control rating, LV activity at 125.1 g/H: 3 day curative
[3] = tested on: Phakopsora pachyrhizi; experiment: Asian soybean rust (PHAKPA) disease control; parameters: key: A: > 80; B: ≤ 80; C: Not Tested; D: No Activity Observed in the Reported Assay; conditions: 25 ppm; for PHAKPA disease control, 1DP: 1 Day Protectant; for PHAKPA disease control, 3DC: 3 Day Curative

Row | SMILES | SEPTTR 1DP disease control rating, LV activity at 125.1 g/H [1] | SEPTTR 3DC disease control rating, LV activity at 125.1 g/H [1] | PUCCRT 1DP disease control rating, LV activity at 125.1 g/H [2] | PUCCRT 3DC disease control rating, LV activity at 125.1 g/H [2] | PHAKPA disease control, 1DP [3] | PHAKPA disease control, 3DC [3] | SEPTTR 1DP, LV activity at 125.1 g/H (% Control rating) ([1]; 1 Day Protectant) | SEPTTR 3DC, LV activity at 125.1 g/H (% Control rating) ([1]; 3 Day Curative) | PUCCRT 1DP, LV activity at 125.1 g/H (% Control rating) ([2]; 1 Day Protectant) | PUCCRT 3DC, LV activity at 125.1 g/H (% Control rating) ([2]; 3 Day Curative) | SEPTTR 1DP disease control rating, HV activity ([1]; HV application at 100 ppm, 1 Day Protectant, wheat leaf blotch) | SEPTTR 3DC disease control rating, HV activity ([1]; HV application at 100 ppm, 3 Day Curative, wheat leaf blotch) | PUCCRT 1DP disease control rating, HV activity ([2]; HV application at 100 ppm, 1 Day Protectant, wheat brown rust) | PUCCRT 3DC disease control rating, HV activity ([2]; HV application at 100 ppm, 3 Day Curative, wheat brown rust)
1 | COc1cccc(OC(C2CCCC2)C(C)OC(=O)C(C)NC(=O)c2nccc(OC)c2OCOC(C)=O)c1 (stereo not drawn) [Cmpd 917] | B (≤ 80) | A (> 80) | A (> 80) | A (> 80) | B (≤ 80) | B (≤ 80) |  |  |  |  |  |  |  | 
2 | COc1ccnc(C(=O)N[C@@H](C)C(=O)O[C@@H](C)[C@H](Oc2ccccc2)c2ccc(F)cc2)c1OCOC(C)=O [Cmpd 924] | A (> 80) | A (> 80) | A (> 80) | A (> 80) | A (> 80) | D |  |  |  |  |  |  |  | 
3 | CCC(CC)[C@@H](Oc1ccc(F)cc1)[C@H](C)OC(=O)[C@H](C)NC(=O)c1nccc(OC)c1OC(C)=O [Cmpd 598] |  |  |  |  | A (> 80) | B (≤ 80) | A (> 80) | A (> 80) | A (> 80) | A (> 80) |  |  |  | 
4 | CCC(CC)[C@@H](Oc1ccccc1Cl)[C@H](C)OC(=O)[C@H](C)NC(=O)c1nccc(OC)c1OC(C)=O [Cmpd 604] |  |  |  |  | B (≤ 80) | B (≤ 80) | B (≤ 80) | A (> 80) | A (> 80) | A (> 80) |  |  |  | 
5 | COc1ccnc(C(=O)NC(C)C(=O)OC(C)C(Oc2ccc(Cl)cc2)C2CCCC2)c1OCOC(C)=O (stereo not drawn) [Cmpd 912] | A (> 80) | A (> 80) | A (> 80) | A (> 80) | B (≤ 80) | B (≤ 80) |  |  |  |  |  |  |  | 
6 | COc1ccnc(C(=O)NC(C)C(=O)OC(C)C(Oc2cccc(F)c2)C2CCCC2)c1OCOC(C)=O (stereo not drawn) [Cmpd 909] | A (> 80) | A (> 80) | A (> 80) | A (> 80) | A (> 80) | B (≤ 80) |  |  |  |  |  |  |  | 
7 | COc1ccnc(C(=O)N[C@@H](C)C(=O)O[C@@H](C)[C@H](Oc2ccccc2)c2ccc(F)cc2)c1OC(C)=O [Cmpd 925] | A (> 80) | A (> 80) | A (> 80) | A (> 80) | A (> 80) | B (≤ 80) |  |  |  |  |  |  |  | 
8 | COc1ccnc(C(=O)N[C@@H](C)C(=O)O[C@@H](C)[C@H](Oc2cc(F)ccc2F)C(C)C)c1OC(C)=O [Cmpd 627] |  |  |  |  | B (≤ 80) | B (≤ 80) | B (≤ 80) | A (> 80) | A (> 80) | A (> 80) |  |  |  | 
9 | CCC[C@@H](Oc1ccccc1)[C@H](C)OC(=O)[C@H](C)NC(=O)c1nccc(OC)c1OC(C)=O [Cmpd 696] | A (> 80) | A (> 80) | A (> 80) | A (> 80) | A (> 80) | A (> 80) |  |  |  |  |  |  |  | 
10 | C=CC(C)C(Oc1ccccc1)C(C)OC(=O)C(C)NC(=O)c1nccc(OC)c1OC(C)=O (stereo not drawn) [Cmpd 693] | B (≤ 80) | A (> 80) | A (> 80) | A (> 80) | A (> 80) | B (≤ 80) |  |  |  |  |  |  |  | 
11 | COc1ccnc(C(=O)N[C@@H](C)C(=O)O[C@@H](C)[C@H](Oc2ccccc2)C(C)C)c1O [Cmpd 304] |  |  |  |  | D | B (≤ 80) |  |  |  |  | A (> 80) | A (> 80) | A (> 80) | A (> 80)
12 | COc1ccnc(C(=O)NC(C)C(=O)OC(C)C(Oc2ccc(F)cc2)C2CCCC2)c1OCOC(C)=O (stereo not drawn) [Cmpd 910] | A (> 80) | A (> 80) | A (> 80) | A (> 80) | A (> 80) | B (≤ 80) |  |  |  |  |  |  |  | 
13 | CCC(CC)[C@@H](Oc1cccc(Cl)c1)[C@H](C)OC(=O)[C@H](C)NC(=O)c1nccc(OC)c1OC(C)=O [Cmpd 599] |  |  |  |  | A (> 80) | A (> 80) | A (> 80) | A (> 80) | B (≤ 80) | A (> 80) |  |  |  | 
14 | CCC(CC)[C@H](Oc1ccc(Cl)cc1Cl)[C@H](C)OC(=O)[C@H](C)NC(=O)c1nccc(OC)c1OCOC(C)=O [Cmpd 670] | A (> 80) | A (> 80) | A (> 80) | A (> 80) | B (≤ 80) | B (≤ 80) |  |  |  |  |  |  |  | 
15 | COc1ccnc(C(=O)N[C@@H](C)C(=O)O[C@@H](C)[C@H](Oc2cccc(Cl)c2)C(C)C)c1OCOC(C)=O [Cmpd 561] |  |  |  |  | A (> 80) | A (> 80) | A (> 80) | A (> 80) | A (> 80) | A (> 80) |  |  |  | 
16 | COc1ccnc(C(=O)N[C@@H](C)C(=O)O[C@@H](C)[C@H](Oc2ccc(Cl)cc2)C(C)C)c1OC(C)=O [Cmpd 568] |  |  |  |  | A (> 80) | B (≤ 80) | B (≤ 80) | A (> 80) | A (> 80) | A (> 80) |  |  |  | 
